Test results: article PMC5216056 (Nature Communications, 2017)
Like-named read-outs stand apart in the source and are kept apart here.

Assays:
[1] = biological target: T1, hCB2R (Homo sapiens, UniProt P34972); experiment: cell-based; type: cell-based; set-up: expressed in transfected cells; host or cells: Flp-In-293 (Invitrogen #R750-07), pcDNA5/FRT
[2] = biological target: mCB2R (Mus musculus, UniProt P47936); experiment: biochemical; type: biochemical; set-up: from tissue; host or cells: spleen of male C57BL/6J mice; conditions: for pEC50 ± SEM cAMP mCB2R: mouse spleen
Chain of mCB2R (P47936 whole entry): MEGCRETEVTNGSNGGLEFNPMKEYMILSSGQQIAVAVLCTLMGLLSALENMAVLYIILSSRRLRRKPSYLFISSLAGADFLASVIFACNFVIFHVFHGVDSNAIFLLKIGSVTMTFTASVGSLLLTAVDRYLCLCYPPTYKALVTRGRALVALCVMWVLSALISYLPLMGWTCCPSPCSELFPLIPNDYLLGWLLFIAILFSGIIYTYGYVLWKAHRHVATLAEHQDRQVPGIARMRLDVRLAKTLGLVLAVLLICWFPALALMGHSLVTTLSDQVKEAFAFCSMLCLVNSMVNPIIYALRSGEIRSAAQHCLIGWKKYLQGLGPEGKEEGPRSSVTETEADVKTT

[3] = system: AEA reuptake in HaCaT cells; experiment: cells; type: cell-based, human; conditions: for IC50: read-out: AEA reuptake IC50 (95% CI) HaCaT cells; for AEA reuptake Efficacy (% inhibition) HaCaT cells: from dose-response
[4] = biological target: T1, hCB2R; experiment: biochemical; type: biochemical; set-up: expressed in transfected cells; host or cells: Flp-In-293 (Invitrogen #R750-07), pcDNA5/FRT
[5] = biological target: T2, MAGL (Homo sapiens, UniProt Q99685); experiment: Biochemical MAGL activity assay; conditions: 10 µM
T2 construct: expressed in transfected cells; host or cells: HEK293T (transient), membrane preparation
T2 sequence (Q99685 1-303): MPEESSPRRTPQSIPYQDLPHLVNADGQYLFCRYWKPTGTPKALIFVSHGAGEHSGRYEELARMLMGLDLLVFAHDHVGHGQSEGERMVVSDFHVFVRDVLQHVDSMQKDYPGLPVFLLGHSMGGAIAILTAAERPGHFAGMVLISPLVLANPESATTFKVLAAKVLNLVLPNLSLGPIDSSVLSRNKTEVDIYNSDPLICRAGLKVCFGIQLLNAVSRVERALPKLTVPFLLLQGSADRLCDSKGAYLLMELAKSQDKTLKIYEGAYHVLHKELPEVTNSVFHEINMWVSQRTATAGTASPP
Method: Cell culture and membrane preparation were performed as previously described. HEK293T cells (source: Dutch Cancer Institute) were grown in DMEM with stable glutamine and phenolred (PAA), 10% New Born Calf serum, penicillin and streptomycin. Cells were passaged every 2–3 days by resuspending in medium and seeding them to appropriate confluence. Membranes were prepared from transiently transfected HEK293T cells. One day prior to transfection 10^7 cells were seeded in a 15 cm petri dish. Cells were transfected by the addition of a 3:1 mixture of polyethyleneimine (60 μg) and plasmid DNA (20 μg) in 2 ml serum-free medium. The medium was refreshed after 24 h, and after 72 h the cells were harvested by suspending them in 20 ml medium. The suspension was centrifuged for 10 min at 1000, rpm, and the supernatant was removed. The cell pellet was stored at −80 °C until use. Cell pellets were thawed on ice and suspended in lysis buffer A (20 mM HEPES, 2 mM DTT, 0.25 M sucrose, 1 mM MgCl2, […] Benzonase). The suspension was homogenized by polytrone (3 × 7 s) and incubated for 30 min on ice. The suspension was subjected to ultracentrifugation (100,000 × g, 30 min, 4 °C, Beckman Coulter, Type Ti70 rotor) to yield the cytosolic fraction in the supernatant and the membrane fraction as a pellet. The pellet was resuspended in lysis buffer B (20 mM HEPES, 2 mM DTT). The protein concentration was determined with Quick Start Bradford assay (Biorad). The protein fractions were diluted to a total protein concentration of 1 mg ml^−1 and stored in small aliquots at −80 °C until use.
Percentage of inhibition of reference ligands was determined in comparison with an untreated control. […] Fluorescence was measured in 5 min intervals for 60 min.

[6] = biological target: T3, GR (h) (Homo sapiens, UniProt P04150); experiment: CEREP panel; type: binding; conditions: 10 µM
T3 construct: CEREP (contract assay)
T3 sequence (P04150 1-777): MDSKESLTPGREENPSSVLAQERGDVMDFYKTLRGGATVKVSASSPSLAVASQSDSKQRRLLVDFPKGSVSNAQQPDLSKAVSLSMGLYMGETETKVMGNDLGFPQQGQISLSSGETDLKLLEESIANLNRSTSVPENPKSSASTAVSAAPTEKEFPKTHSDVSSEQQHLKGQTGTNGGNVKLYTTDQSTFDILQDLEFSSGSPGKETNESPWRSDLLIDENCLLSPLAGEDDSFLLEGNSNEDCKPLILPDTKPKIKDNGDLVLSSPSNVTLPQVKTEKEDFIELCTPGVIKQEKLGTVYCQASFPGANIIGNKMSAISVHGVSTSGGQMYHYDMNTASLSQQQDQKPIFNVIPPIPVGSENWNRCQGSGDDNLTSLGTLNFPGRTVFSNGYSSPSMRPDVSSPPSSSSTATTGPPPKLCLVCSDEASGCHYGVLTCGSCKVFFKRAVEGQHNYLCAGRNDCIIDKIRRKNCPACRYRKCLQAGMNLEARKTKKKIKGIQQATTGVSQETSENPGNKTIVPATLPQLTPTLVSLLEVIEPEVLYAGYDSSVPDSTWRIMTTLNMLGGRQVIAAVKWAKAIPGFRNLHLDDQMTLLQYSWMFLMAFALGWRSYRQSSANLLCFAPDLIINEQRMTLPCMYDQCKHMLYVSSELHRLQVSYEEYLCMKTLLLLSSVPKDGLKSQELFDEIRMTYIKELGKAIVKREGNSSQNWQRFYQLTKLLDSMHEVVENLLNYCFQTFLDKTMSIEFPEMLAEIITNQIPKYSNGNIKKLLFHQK

[7] = biological target: T1, hCB2R; experiment: cell-based; type: cell-based
[8] = normalized to 10 µM CP55940, negative = inverse agonism
[9] = normalized to 10 µM CP55940, negative = inhibition of EC80 of CP55940

T1 sequence (P34972 whole entry): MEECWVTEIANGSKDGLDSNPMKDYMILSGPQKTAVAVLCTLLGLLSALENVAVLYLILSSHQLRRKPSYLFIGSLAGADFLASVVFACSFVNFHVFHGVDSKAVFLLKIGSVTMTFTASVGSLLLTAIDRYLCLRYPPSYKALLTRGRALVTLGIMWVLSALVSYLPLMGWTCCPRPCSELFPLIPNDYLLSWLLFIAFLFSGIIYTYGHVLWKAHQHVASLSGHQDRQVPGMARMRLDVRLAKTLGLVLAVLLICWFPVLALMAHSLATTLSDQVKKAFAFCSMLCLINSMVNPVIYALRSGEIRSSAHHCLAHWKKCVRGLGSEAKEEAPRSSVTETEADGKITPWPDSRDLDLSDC

| Compound | Emax ± SEM pERK hCB2R ([1]; normalized to 10 µM CP55940) [%] | Emax cAMP mCB2R ([2]; normalized to 10 µM CP55940) [%] | AEA reuptake % inhibition, effect at 10 µM, HaCaT cells ([3]; 10 µM (values marked *)) [%] | IC50 [3] [µM] | Emax ± SEM GTPγS hCB2R [4, 8] [%] | MAGL % inhibition at 10 µM ± SD [5] [%] | % inhibition GR (h) [6] [%] | Emax ± SEM β-AR recruitment hCB2R [7, 9] [%] | CB2R Selectivity cAMP (mouse) ([2]; 10^(pEC50 CB2R-pEC50 CB1R)) [fold] | pEC50 ± SEM cAMP mCB2R [2] | AEA reuptake Efficacy (% inhibition) HaCaT cells [3] [%] | pEC50 ± SEM GTPγS hCB2R [4] | pEC50 ± SEM β-AR recruitment hCB2R ([7]; antagonists in presence of EC80 of CP55940) | Emax ± SEM pERK hCB2R [1] | pEC50 ± SEM pERK hCB2R [1] | Emax cAMP mCB2R [2] | Emax ± SEM GTPγS hCB2R [4] | Emax ± SEM β-AR recruitment hCB2R [7] | pEC50 ± SEM β-AR recruitment hCB2R [7] |
| --- | --- | --- | --- | --- | --- | --- | --- | --- | --- | --- | --- | --- | --- | --- | --- | --- | --- | --- | --- |
| SR144528 | -99 ± 3 | -100 | 20 | > 10 | -29 ± 2 | 3 ± 16 | 9 | -111 ± 3 | – | – | – | – | – | – | – | – | – | – | – |
| Cc1ccc2c(c1)Cc1c(C(=O)NN3CCCCC3)nn(-c3ccc(Cl)cc3Cl)c1-2 [Gp-1a] | 5 ± 6 | -25 | – | 3.27 | -14 ± 5 | -1 ± 15 | 71 | -147 ± 11 | 25 | 7.25 ± 0.32 | 90 | 7.09 ± 0.07 | 5.86 ± 0.16 | – | – | – | – | – | – |
| COc1ccc(C(=O)c2c(C)n(CCN3CCOCC3)c3cc(I)ccc23)cc1 [AM630] | – | – | – | 4.18 | – | 4 ± 16 | 38 | – | – | 7.93 ± 0.3 | 65 | 6.75 ± 0.20 | – | -92 ± 4 | 5.09 ± 0.06 | -65 | -22 ± 2 | -124 ± 6 | 6.15 ± 0.08 |
